Assay results taken from US10398651B2, “Carrier-free nanoparticles” (priority 2016, dated 2019).

Legend:
[1] = tested on: K562 chronic myelogenous leukemia cells; details: cited from earlier work
[2] = tested on: HT-29 colon cancer cells; details: cited from earlier work
[3] = tested on: HeLa cervical cancer cells; details: cited from earlier work
[4] = tested on: B16F10 cells; experiment: IC50 determination, PI staining and flow cytometry, B16F10 cells; type: cell-based; details: Mus musculus, B16-F10, 24 h treatment, PI staining + flow cytometry
Protocol: B16F10 cells grown in DMEM medium was tested with propidium iodide (PI) staining due to the production of melanin [32], which interferes with colorimetric assay. B16F10 cells were seeded in a 6 well plate at a density of 100,000 cells per well. After overnight incubation, the medium was replaced with fresh medium, to which 100 μL of PNC-alb, Cim-C-alb, or Cim-F-alb in PBS was added to provide the final concentration eq. to 30 μg/mL PTX. After incubation with NC for 3 h, cells were washed with PBS two times to remove NC, followed by additional incubation for 21 h in NC-free medium. Then, B16F10 cells were trypsinized and stained with PI (1 μg/mL) for 15 min in dark at room temperature. The cells were centrifuged at 300 g for 5 minutes to remove extra PI dye and reconstituted in PBS for flow cytometry (Accuri C6, BD Biosciences, San Jose, Calif.). At least 15,000 gated events were acquired, and FL-2 channel was monitored to determine the population of PI-stained cells.
Cytotoxicity of Cim-F-alb was tested with B16F10 cells and SKOV-3 human ovarian cancer cells (ATCC, Manassas, Va., USA) over a range of PTX concentrations. SKOV-3 cells were grown in RPMI-1640 medium containing 10% FBS and penicillin (100 IU/mL) and streptomycin (100 μg/mL). […] IC50 was calculated with GraphPad Prism 6 (La Jolla, Calif., USA).

[5] = tested on: B16F10 cells; experiment: IC50 determination, MTT assay, B16F10 cells; type: cell-based; details: Mus musculus
Protocol: Cytotoxicity of NC was tested with B16F10 cells. B16F10 cells were grown in RPMI-1640 or DMEM medium supplemented with 10% FBS, penicillin (100 IU/mL) and streptomycin (100 μg/mL). B16F10 cells grown in RPMI-1640 were seeded in a 96 well plate at a density of 10,000 cells per well. After overnight incubation, the culture medium was replaced with a fresh cell culture medium, to which PNC-alb, Cim-C-alb, or Cim-F-alb were added to provide the final concentration eq. to 30 μg/mL PTX. After 3 h incubation, cells were washed with PBS twice to remove NC, followed by additional incubation for 21 h in NC-free medium. The cell viability was determined by the MTT (3-(4,5-dimethylthiazol-2-yl)-2,5-diphenyltetrazolium bromide) assay. Cells were treated with 75 μg of MTT and incubated for 3.5 h. The formazan crystals were dissolved in stop/solubilization solution (50% DMF, 20% SDS, pH 5) and quantified with a SpectraMax M3 microplate reader (Molecular Devices, CA, USA) at the wavelength of 562 nm.
(§1) Cytotoxicity of Cim-F-alb was tested with B16F10 cells and SKOV-3 human ovarian cancer cells (ATCC, Manassas, Va., USA) over a range of PTX concentrations. SKOV-3 cells were grown in RPMI-1640 medium containing 10% FBS and penicillin (100 IU/mL) and streptomycin (100 μg/mL). Both cells were treated with Cim-F-alb for 24 h, followed by post-treatment incubation in NC-free medium for 12-48 h. Free PTX and Abraxane were tested in the same manner for comparison. Cim-F-alb and Abraxane were directly reconstituted in PBS and serially diluted by a factor of 10. Free PTX solution was prepared as PTX stock solution in 50% DMSO at a concentration of 1 mg/mL and diluted in PBS. The maximum possible concentration of DMSO in the medium was 5% v/v. SKOV-3 cells and B16F10 cells grown in RPMI-1640 were tested with the MTT assay, and B16F10 cells grown in DMEM were tested with PI staining and flow cytometry. IC50 was calculated with GraphPad Prism 6 (La Jolla, Calif., USA).

[6] = As-received PTX dissolved in FBS-containing media after 6 h; type: physicochemical; details: 6 h at 37° C.
Protocol: FIG. 23. […] One milligram of PTX was added to 1 mL of each medium and incubated for 6 h with agitation. A supernatant was separated from the undissolved PTX by centrifugation at 135,700 rcf for 10 min, extracted with 3 mL of ethyl acetate, which was evaporated and reconstituted in 50% ACN for HPLC analysis. […] The FBS suspension was sampled at 6 h to quantify dissolved PTX by that time. A supernatant was separated from the sample by 10 min centrifugation at 135,700 rcf and analyzed in the same way. The incubation time was limited to 6 h due to the instability of PTX in serum. Since the extraction method cannot differentiate protein-bound PTX from free PTX, the measured values represent the sum of serum protein-bound and free PTX. • [1] G. Bajaj, M. R. Kim, S. I. Mohammed, Y. Yeo, Hyaluronic acid-based hydrogel for regional delivery of paclitaxel to intraperitoneal tumors, J. Control. Release 158 (2012) 386-392. • [2] I. Ringel, S. B. Horwitz, Taxol is converted to 7-epitaxol, a biologically active isomer, in cell culture medium, J. Pharmacol. Exp. Ther. 242 (1987) 692-698.

[7] = tested on: SKOV-3 human ovarian cancer cells; experiment: IC50 determination, MTT assay, SKOV-3 cells; type: cell-based; details: SK-OV-3, SKOV3, 24 h treatment + 48 h post-treatment incubation
Protocol: as §1

Row | IC50 [4] | IC50 ([5]; B16-F10, 24 h, B16F10, 24 h treatment + 24 h post-treatment incubation) | IC50 ([5]; B16-F10, B16F10, 24 h treatment + 12 h post-treatment incubation) | IC50 ([5]; B16-F10, B16F10, 24 h treatment + 48 h post-treatment incubation) | PTX dissolved in 10% FBS [6] | PTX dissolved in 50% FBS [6] | PTX dissolved in undiluted FBS [6] | IC50 [7] | SMILES | cytotoxicity [1] | cytotoxicity [2] | cytotoxicity [3]
1 |  |  |  |  |  |  |  |  | CCCCCCCCCCCCCCCC[N+](C)(C)C.[Br-] [CTAB, hexadecyltrimethylammonium bromide] | cytotoxic | cytotoxic | cytotoxic
2 | 423 nM | 213 nM | 91.3 nM | 765 nM | 9.6 ± 2.6 µg/mL | 47.5 ± 11.4 µg/mL | 71.9 ± 8.2 µg/mL | 34.2 nM | CC(=O)O[C@H]1C(=O)[C@@]2(C)[C@H]([C@H](OC(=O)c3ccccc3)[C@]3(O)C[C@H](OC(=O)[C@H](O)[C@@H](NC(=O)c4ccccc4)c4ccccc4)C(C)=C1C3(C)C)[C@]1(OC(C)=O)CO[C@@H]1C[C@@H]2O [Free PTX, paclitaxel] |  |  | 
